Like-named read-outs stand apart in the source and are kept apart here.
Key:
mA1AR = target: T1, mA1AR (Mus musculus, UniProt Q60612); experiment: Adenosine receptor binding, mA1AR
T1 sequence (Q60612 1-326): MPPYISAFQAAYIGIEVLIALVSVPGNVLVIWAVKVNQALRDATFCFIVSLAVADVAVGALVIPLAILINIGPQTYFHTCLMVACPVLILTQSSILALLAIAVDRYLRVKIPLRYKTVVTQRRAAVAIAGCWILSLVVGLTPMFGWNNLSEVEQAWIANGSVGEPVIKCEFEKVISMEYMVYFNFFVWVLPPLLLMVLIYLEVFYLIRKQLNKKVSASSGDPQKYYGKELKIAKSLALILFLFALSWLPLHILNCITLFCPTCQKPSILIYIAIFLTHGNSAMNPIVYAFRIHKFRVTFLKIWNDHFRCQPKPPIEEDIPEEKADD

mA3AR = target: T2, mA3AR (Mus musculus, UniProt Q61618); experiment: Adenosine receptor binding, mA3AR; settings: (m); Ki; read-out: A3AR % inhibition or Ki (converted)
T2 sequence (Q61618 1-319): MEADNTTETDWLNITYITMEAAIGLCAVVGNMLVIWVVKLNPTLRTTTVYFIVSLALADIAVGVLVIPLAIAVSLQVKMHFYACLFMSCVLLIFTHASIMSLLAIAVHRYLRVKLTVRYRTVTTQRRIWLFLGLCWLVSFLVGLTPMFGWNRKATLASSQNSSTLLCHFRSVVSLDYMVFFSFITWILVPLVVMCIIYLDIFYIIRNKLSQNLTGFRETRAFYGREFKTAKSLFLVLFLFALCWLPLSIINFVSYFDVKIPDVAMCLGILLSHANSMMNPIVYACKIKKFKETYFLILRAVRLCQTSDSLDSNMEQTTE

wild-type C57BL/6J mice [1] = experiment: Hypothermia (Tb by telemetry) after ip dosing; format: in vivo, mouse; settings: average from dosing to 60 min, mean±SD
Description: (§1) Compounds were dosed ip. Tb and activity were measured by telemetry and the averages from dosing to 60 min were calculated. […] Data are for the highest dose used and are mean±SD from 3 to 22 mice/group (usually 5-7). P values are unpaired t-Test vs vehicle-treated controls assayed simultaneously. Vehicle data are mean±SD from all (n=83) vehicle treated mice.

wild-type C57BL/6J mice [2] = experiment: Locomotor activity by telemetry after ip dosing; format: in vivo, mouse; settings: average from dosing to 60 min, mean±SD
Description: as §1

hA1AR = target: T3, hA1AR (Homo sapiens, UniProt P30542); experiment: Radioligand binding in membranes of CHO cells expressing hA1AR, [3H]N6-R-phenylisopropyladenosine; settings: read-out: A1AR % inhibition or Ki; for Ki: (h)
T3 construct: expressed in transfected cells; host or cells: CHO
T3 sequence (P30542 1-326): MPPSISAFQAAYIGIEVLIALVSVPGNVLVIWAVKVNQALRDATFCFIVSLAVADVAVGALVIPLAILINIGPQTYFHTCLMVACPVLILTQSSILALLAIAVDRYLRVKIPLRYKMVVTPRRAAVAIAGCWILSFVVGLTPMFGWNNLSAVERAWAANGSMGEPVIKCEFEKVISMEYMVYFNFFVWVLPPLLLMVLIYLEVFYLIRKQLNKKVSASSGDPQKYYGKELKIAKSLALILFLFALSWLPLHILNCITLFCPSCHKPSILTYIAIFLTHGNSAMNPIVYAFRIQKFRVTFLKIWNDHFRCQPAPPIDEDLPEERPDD

hA2AAR = target: T4, hA2AAR (Homo sapiens, UniProt P29274); experiment: Radioligand binding in membranes of HEK293 cells expressing hA2AAR; settings: read-out: A2AAR % inhibition; for Ki: (h), values without % sign (Ki)
T4 construct: expressed in transfected cells; host or cells: HEK293

hA3AR = target: T5, hA3AR (Homo sapiens, UniProt P0DMS8); experiment: Radioligand binding in membranes of CHO cells expressing hA3AR; settings: read-out: A3AR % inhibition or Ki; for Ki: (h)
T5 construct: expressed in transfected cells; host or cells: CHO
T5 sequence (P0DMS8 1-318): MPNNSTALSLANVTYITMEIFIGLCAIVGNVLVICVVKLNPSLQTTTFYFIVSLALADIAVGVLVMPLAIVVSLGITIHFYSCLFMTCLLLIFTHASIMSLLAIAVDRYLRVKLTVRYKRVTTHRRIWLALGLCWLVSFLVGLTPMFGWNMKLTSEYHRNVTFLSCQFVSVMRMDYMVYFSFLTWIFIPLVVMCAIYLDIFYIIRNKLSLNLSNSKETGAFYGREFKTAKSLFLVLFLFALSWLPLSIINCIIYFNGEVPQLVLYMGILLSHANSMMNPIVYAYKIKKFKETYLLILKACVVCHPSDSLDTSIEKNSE

sigma receptor σ1 = sigma receptor σ1 (Homo sapiens, UniProt Q99720); experiment: Off-target interaction determined by the PDSP; format: binding; settings: read-out: Off-target, receptor (h, unless noted) (Ki, μM): σ1
serotonin receptor 5HT2B = serotonin receptor 5HT2B (Homo sapiens, UniProt P41595); experiment: Off-target interaction determined by the PDSP; format: binding; settings: read-out: Off-target, receptor (h, unless noted) (Ki, μM): 5HT2B
[3] = target: TSPO (translocator protein) (UniProt P30536); experiment: Off-target interaction determined by the PDSP; format: binding, human
sigma receptor σ2 = sigma receptor σ2 (UniProt Q5BJF2); experiment: Off-target interaction determined by the PDSP; format: binding, human; settings: read-out: Off-target, receptor (h, unless noted) (Ki, μM): σ2
serotonin receptor 5HT2C = target: T6, serotonin receptor 5HT2C (Homo sapiens, UniProt P28335); experiment: Off-target interaction determined by the PDSP; format: binding; settings: read-out: Off-target, receptor (h, unless noted) (Ki, μM): 5HT2C
T6 sequence (P28335 33-458): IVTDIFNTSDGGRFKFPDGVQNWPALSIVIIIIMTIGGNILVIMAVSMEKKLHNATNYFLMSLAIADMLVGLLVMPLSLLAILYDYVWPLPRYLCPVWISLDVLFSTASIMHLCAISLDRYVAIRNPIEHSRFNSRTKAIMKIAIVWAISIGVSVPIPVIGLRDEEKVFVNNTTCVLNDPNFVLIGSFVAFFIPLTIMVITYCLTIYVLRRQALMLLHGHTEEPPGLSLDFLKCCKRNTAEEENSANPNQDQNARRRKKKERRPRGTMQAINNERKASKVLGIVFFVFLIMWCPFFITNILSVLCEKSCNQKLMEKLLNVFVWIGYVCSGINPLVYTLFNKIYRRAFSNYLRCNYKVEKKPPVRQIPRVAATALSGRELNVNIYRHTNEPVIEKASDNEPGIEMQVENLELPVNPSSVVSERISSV

[4] = system: off-target receptors (PDSP); experiment: Off-target interactions determined by the PDSP, whole screen; format: binding, human; settings: no off-target interaction listed
[5] = (m), Ki, read-out: A1AR % inhibition or Ki (converted)

T4 sequence (P29274 whole entry): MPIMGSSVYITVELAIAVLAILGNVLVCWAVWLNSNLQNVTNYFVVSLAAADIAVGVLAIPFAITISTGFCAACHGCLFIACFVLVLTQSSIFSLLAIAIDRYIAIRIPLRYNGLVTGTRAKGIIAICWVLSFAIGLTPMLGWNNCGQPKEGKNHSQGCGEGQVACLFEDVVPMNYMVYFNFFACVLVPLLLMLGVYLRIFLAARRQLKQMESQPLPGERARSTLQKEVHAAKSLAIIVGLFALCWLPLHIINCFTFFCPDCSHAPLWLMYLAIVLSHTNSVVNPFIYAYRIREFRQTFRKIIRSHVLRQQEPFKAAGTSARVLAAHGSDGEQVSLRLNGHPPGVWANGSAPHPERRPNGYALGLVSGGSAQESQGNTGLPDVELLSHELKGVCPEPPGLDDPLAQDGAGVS
sigma receptor σ1, sequence (Q99720 whole entry): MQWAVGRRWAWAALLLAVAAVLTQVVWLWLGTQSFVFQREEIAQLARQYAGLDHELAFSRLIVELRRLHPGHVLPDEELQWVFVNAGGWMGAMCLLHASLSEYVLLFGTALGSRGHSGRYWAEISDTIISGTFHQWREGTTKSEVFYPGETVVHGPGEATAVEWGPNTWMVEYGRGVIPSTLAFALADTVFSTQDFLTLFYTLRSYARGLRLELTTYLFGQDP
serotonin receptor 5HT2B, sequence (P41595 whole entry): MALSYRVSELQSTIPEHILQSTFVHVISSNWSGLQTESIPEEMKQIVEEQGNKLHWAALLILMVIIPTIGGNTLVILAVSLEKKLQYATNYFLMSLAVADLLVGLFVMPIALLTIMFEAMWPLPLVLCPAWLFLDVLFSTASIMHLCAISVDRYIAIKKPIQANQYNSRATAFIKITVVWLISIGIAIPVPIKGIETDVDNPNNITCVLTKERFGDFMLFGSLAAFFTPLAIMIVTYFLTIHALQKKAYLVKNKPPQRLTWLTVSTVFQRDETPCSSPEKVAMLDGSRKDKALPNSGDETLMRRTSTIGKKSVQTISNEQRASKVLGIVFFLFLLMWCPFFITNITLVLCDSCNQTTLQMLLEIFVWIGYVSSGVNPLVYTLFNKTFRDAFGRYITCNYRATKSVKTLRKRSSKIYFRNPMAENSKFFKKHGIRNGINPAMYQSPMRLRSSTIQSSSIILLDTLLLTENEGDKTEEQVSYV

Compound	Ki (mA1AR; [5]) [nM]	Ki (mA3AR) [nM]	Ki (hA1AR) [nM]	Ki (hA2AAR) [nM]	Ki (hA3AR) [nM]	Ki (sigma receptor σ1) [µM]	Ki (sigma receptor σ2) [µM]	other results
O[C@@H]1[C@H](O)[C@@H](CCl)O[C@H]1n1cnc2c(NC3CC4CCC3C4)ncnc21 (stereo partly shown) [Compound 4, reference compound]	0.2	2410						Tb (° C.) (wild-type C57BL/6J mice [1]; 3 mg/kg ip): 32.2 ± 1.3 °C; Activity (counts) (wild-type C57BL/6J mice [2]; 3 mg/kg ip): 2.8 ± 1.6 counts
CNC(=O)[C@@]12C[C@@H]1[C@@H](n1cnc3c(NC4CCCC4)nc(Cl)nc31)[C@H](O)[C@@H]2O [Compound 6e, reference compound]	0.68	3.46 ± 0.13	18.3 ± 6.3	3250 ± 300	3.7 ± 0.9	1.55		Ki (serotonin receptor 5HT2B): 0.012 µM
O[C@@H]1[C@H](O)[C@@H]2C[C@@H]2[C@H]1n1cnc2c(NC(C3CC3)C3CC3)nc(Cl)nc21 [Compound 7, reference compound]								Tb (° C.) (wild-type C57BL/6J mice [1]; 3 mg/kg ip): 33.4 ± 1.7 °C; Activity (counts) (wild-type C57BL/6J mice [2]; 3 mg/kg ip): 5.5 ± 4.1 counts
O[C@@H]1[C@H](O)[C@@H](CCl)O[C@H]1n1cnc2c(NC(C3CCC3)C3CCC3)ncnc21 [Compound 10, (2S,3S,4R,5R)-2-(Chloromethyl)-5-(6-((dicyclobutylmethyl)amino)-9H-purin-9-yl)tetrahydrofuran-3,4-diol]	0.71	2110	4.9 ± 0.87	5200	16600	0.69	0.662	Ki ([3]; read-out: Off-target, receptor (h, unless noted) (Ki, μM): TSPO): 3.98 µM; Tb (° C.) (wild-type C57BL/6J mice [1]; 10 mg/kg ip): 35.8 ± 0.1 °C; Activity (counts) (wild-type C57BL/6J mice [2]; 10 mg/kg ip): 20.5 ± 4.6 counts
CCSC[C@H]1O[C@@H](n2cnc3c(NC(C4CCC4)C4CCC4)ncnc32)[C@H](O)[C@@H]1O [Compound 11, (2R,3R,4S,5S)-2-(6-((Dicyclobutylmethyl)amino)-9H-purin-9-yl)-5-((ethylthio)methyl)tetrahydrofuran-3,4-diol]	3.58	718	63.4 ± 12.1		6220 ± 1480	0.626	0.642	inhibition at 10 µM (hA2AAR): 30 ± 5%; Off-target: TSPO (% inhib.) ([3]; footnote j not given): 90%
OC[C@H]1O[C@@H](n2cnc3c(NC(C4CCC4)C4CCC4)nc(Cl)nc32)[C@H](O)[C@@H]1O [Compound 12, (2R,3R,4R,5R)-2-(2-Chloro-6-((dicyclobutylmethyl)amino)-9H-purin-9-yl)-5-(hydroxymethyl)tetrahydrofuran-3,4-diol]		653	17.8 ± 8.7	2550 ± 540	13200			Ki (mA1AR; Table 7, repeats the binding tables, read-out: Binding Ki for mA1AR): 0.65 nM; Ki (serotonin receptor 5HT2C): 1.45 µM
Nc1ncnc2c1ncn2[C@@H]1O[C@H](C(=O)O)[C@@H](O)[C@H]1O [Compound 14]						1.48	0.796	inhibition at 10 µM (hA1AR): 24 ± 4%; inhibition at 10 µM (hA2AAR): 11 ± 4%; inhibition at 10 µM (hA3AR): 32%
CCNC(=O)[C@H]1O[C@@H](n2cnc3c(N)ncnc32)[C@H](O)[C@@H]1O [Compound 16, reference compound]								Off-target, receptor (h, unless noted) [4]: none

Reference: patent US12378248B2 (The United States of America, as represented by the …, priority 2018, dated 2025)
